The results in this text go back to article PMC8564858, “Flavonoid-based inhibitors of the Phi-class glutathione transferase from black-grass to combat multiple herbicide resistance” (Organic & Biomolecular Chemistry, 2021).

The test system of experiment [1] is AmGSTF1. Briefly: CDNB assay: inhibition of AmGSTF1-catalysed glutathionylation of CDNB. It is filed as biochemical, Alopecurus myosuroides. The conditions noted are these: three replicate measurements.
Experiment [2] has as its system AmGSTF1. In words: Thermal shift assay. It is filed as binding, Alopecurus myosuroides. The conditions noted are these: difference in melting temperature compared to no ligand.

As for `COc1cc(OC)c2c(=O)cc(-c3ccc(S(C)(=O)=O)cc3)oc2c1` [18l], the “CDNB Assay % Inhibition” value in the experiment with AmGSTF1 [1] (10 µM compound) amounted to 14%; in the experiment on AmGSTF1 [1] (100 µM compound), 35%. For the same compound, the “Thermal Shift Assay ∆Tm” value in the experiment on AmGSTF1 [2] (1 µM) worked out at 0.13; with AmGSTF1 [2] (10 µM), 0.20; in the experiment on AmGSTF1 [2] (100 µM), 0.30.

Take `Br.COC(=O)C(CCCCN)Oc1cc(OC)cc2oc(-c3ccccc3)cc(=O)c12` (centres unmarked) [compound 51]: the “CDNB Assay % Inhibition” value with AmGSTF1 [1] (10 µM compound) was determined as 25%. Moreover, the “Thermal Shift Assay ∆Tm” value with AmGSTF1 [2] (1 µM) stood at 0.20; with AmGSTF1 [2] (10 µM), 0.43; with AmGSTF1 [2] (100 µM) it was 0.57.

For `COc1cc(OC)c2c(=O)cc(-c3ccn(C)n3)oc2c1` [compound 26], the figures for the “CDNB Assay % Inhibition” value in the experiment on AmGSTF1 [1] (10 µM compound) and in the experiment with AmGSTF1 [1] (100 µM compound) were 19% and 64%, respectively. In addition, the “Thermal Shift Assay ∆Tm” value with AmGSTF1 [2] (1 µM) is 0; with AmGSTF1 [2] (10 µM) it was -0.03; in the experiment with AmGSTF1 [2] (100 µM), -0.17.

Turning to `COc1cc(OC)c2c(=O)cc(N3CCOCC3)oc2c1` [17b], the “CDNB Assay % Inhibition” value is recorded as 0% in the experiment with AmGSTF1 [1] (10 µM compound) and 37% in the experiment on AmGSTF1 [1] (100 µM compound). Also, the “Thermal Shift Assay ∆Tm” value amounted to 0.06 in the experiment with AmGSTF1 [2] (1 µM), 0.23 with AmGSTF1 [2] (10 µM) and 0.20 in the experiment with AmGSTF1 [2] (100 µM).

With `CCCCCCCCCC(Oc1cc(OC)cc2oc(-c3ccccc3)cc(=O)c12)C(=O)O` (centres unmarked) [compound 44], the “CDNB Assay % Inhibition” value came to 58% in the experiment on AmGSTF1 [1] (1 µM compound) and 97% with AmGSTF1 [1] (10 µM compound). Also, the “Thermal Shift Assay ∆Tm” value in the experiment on AmGSTF1 [2] (1 µM) worked out at 0.40; with AmGSTF1 [2] (10 µM), 0.70; in the experiment with AmGSTF1 [2] (100 µM), 0.90.

For the compound `CCCCCCCCCCCCC(Oc1cc(OC)cc2oc(-c3ccccc3)cc(=O)c12)C(=O)O` (centres unmarked) [compound 46], the entries for the “CDNB Assay % Inhibition” value in the experiment with AmGSTF1 [1] (1 µM compound), in the experiment with AmGSTF1 [1] (10 µM compound) and with AmGSTF1 [1] (100 µM compound) were 75%, 90% and 100%, respectively. Further, the “Thermal Shift Assay ∆Tm” value in the experiment on AmGSTF1 [2] (1 µM) came to 0.20; in the experiment on AmGSTF1 [2] (10 µM), 0.73; with AmGSTF1 [2] (100 µM) it was 1.43.

For `COc1cc(OC)c2c(=O)cc(-c3ncco3)oc2c1` [compound 20], the “CDNB Assay % Inhibition” value in the experiment on AmGSTF1 [1] (10 µM compound) was 11%; in the experiment with AmGSTF1 [1] (100 µM compound), 64%. The “Thermal Shift Assay ∆Tm” value is recorded as -0.10 in the experiment on AmGSTF1 [2] (1 µM), -0.17 in the experiment on AmGSTF1 [2] (10 µM) and -0.23 in the experiment on AmGSTF1 [2] (100 µM).

Take `CCCCCCCCCCC(Oc1cc(OC)cc2oc(-c3ccccc3)cc(=O)c12)C(=O)O` (centres unmarked) [compound 45]: the “CDNB Assay % Inhibition” value is reported as 71% in the experiment on AmGSTF1 [1] (1 µM compound), 99% in the experiment with AmGSTF1 [1] (10 µM compound) and 100% in the experiment with AmGSTF1 [1] (100 µM compound). The “Thermal Shift Assay ∆Tm” value in the experiment with AmGSTF1 [2] (1 µM) worked out at 0.30; with AmGSTF1 [2] (10 µM), 0.23; with AmGSTF1 [2] (100 µM), 1.17.

On to `COc1ccc(-c2cc(=O)c3c(OC)cc(OC)cc3o2)cc1` [18c], for which the entries for the “CDNB Assay % Inhibition” value with AmGSTF1 [1] (10 µM compound) and with AmGSTF1 [1] (100 µM compound) were 15% and 100%, respectively. Also, the “Thermal Shift Assay ∆Tm” value in the experiment with AmGSTF1 [2] (1 µM) is 0.23; in the experiment on AmGSTF1 [2] (10 µM), 0.17; in the experiment with AmGSTF1 [2] (100 µM), 0.70.

Consider `COC(=O)c1ccc(-c2cc(=O)c3c(OC)cc(OC)cc3o2)cc1` [18i], for which the figures for the “CDNB Assay % Inhibition” value in the experiment with AmGSTF1 [1] (10 µM compound) and in the experiment with AmGSTF1 [1] (100 µM compound) were 20% and 58%, respectively. In addition, the “Thermal Shift Assay ∆Tm” value with AmGSTF1 [2] (1 µM) was found to be 0.27; in the experiment with AmGSTF1 [2] (10 µM), 0.30; with AmGSTF1 [2] (100 µM), 0.27.

As for `COc1cc(OC)c2c(=O)cc(-c3ccnn3C)oc2c1` [compound 25], the figures for the “CDNB Assay % Inhibition” value in the experiment with AmGSTF1 [1] (10 µM compound) and with AmGSTF1 [1] (100 µM compound) were 9% and 58%, respectively. Also, the results for the “Thermal Shift Assay ∆Tm” value in the experiment with AmGSTF1 [2] (1 µM), with AmGSTF1 [2] (10 µM) and in the experiment with AmGSTF1 [2] (100 µM) were 0, -0.03 and -0.10, respectively.

Take `COc1cccc(-c2cc(=O)c3c(OC)cc(OC)cc3o2)c1` [18f]: the figures for the “CDNB Assay % Inhibition” value in the experiment on AmGSTF1 [1] (10 µM compound) and in the experiment on AmGSTF1 [1] (100 µM compound) were 15% and 79%, respectively. Further, the “Thermal Shift Assay ∆Tm” value in the experiment on AmGSTF1 [2] (1 µM) is reported as 0.33; with AmGSTF1 [2] (10 µM), 0.2; with AmGSTF1 [2] (100 µM) it was -0.17.

On to `COc1cc(OC)c2c(=O)cc(C(=O)Nc3ccc(C)cc3)oc2c1` [16c], for which the “CDNB Assay % Inhibition” value in the experiment on AmGSTF1 [1] (10 µM compound) is 33%; in the experiment with AmGSTF1 [1] (100 µM compound) it was 64%. Besides, the “Thermal Shift Assay ∆Tm” value in the experiment on AmGSTF1 [2] (1 µM) is recorded as 0.20; in the experiment with AmGSTF1 [2] (10 µM), 0.10; with AmGSTF1 [2] (100 µM) it was 0.33.

On to `COc1cc(OC(C)C(=O)O)c2c(=O)cc(-c3ccccc3)oc2c1` (centres unmarked) [compound 41], for which the “CDNB Assay % Inhibition” value in the experiment on AmGSTF1 [1] (10 µM compound) is given as 14%. For the same compound, the “Thermal Shift Assay ∆Tm” value turned out to be 0.20 with AmGSTF1 [2] (1 µM), 0.20 with AmGSTF1 [2] (10 µM) and 1.10 with AmGSTF1 [2] (100 µM).

As for `COc1cc(OC)c2c(=O)cc(-c3ccccc3)oc2c1` [18a], the “CDNB Assay % Inhibition” value in the experiment on AmGSTF1 [1] (10 µM compound) amounted to 20%; with AmGSTF1 [1] (100 µM compound), 70%. Besides, the figures for the “Thermal Shift Assay ∆Tm” value with AmGSTF1 [2] (1 µM), in the experiment with AmGSTF1 [2] (10 µM) and with AmGSTF1 [2] (100 µM) were 0.23, 0.33 and 0.3, respectively.

In the case of `CCCCC(=O)NCCCCC(Oc1cc(OC)cc2oc(-c3ccccc3)cc(=O)c12)C(=O)O` (centres unmarked) [compound 52], the “CDNB Assay % Inhibition” value worked out at 6% in the experiment on AmGSTF1 [1] (1 µM compound) and 39% with AmGSTF1 [1] (10 µM compound). In addition, the “Thermal Shift Assay ∆Tm” value in the experiment with AmGSTF1 [2] (1 µM) came out at 0.13; in the experiment on AmGSTF1 [2] (10 µM), 0.30; in the experiment with AmGSTF1 [2] (100 µM), 1.10.

In the case of `COc1cc(OC)c2c(=O)cc(-c3ccc4c(c3)OCO4)oc2c1` [18h], the “CDNB Assay % Inhibition” value in the experiment on AmGSTF1 [1] (10 µM compound) was found to be 12%; in the experiment with AmGSTF1 [1] (100 µM compound) it was 33%. Besides, the entries for the “Thermal Shift Assay ∆Tm” value in the experiment on AmGSTF1 [2] (1 µM), with AmGSTF1 [2] (10 µM) and in the experiment with AmGSTF1 [2] (100 µM) were 0.27, 0.17 and 0.33, respectively.

As to `COc1cc(OC)c2c(=O)cc(NCCCO)oc2c1` [17d], the “CDNB Assay % Inhibition” value in the experiment with AmGSTF1 [1] (100 µM compound) is recorded as 12%. The “Thermal Shift Assay ∆Tm” value in the experiment with AmGSTF1 [2] (1 µM) was found to be 0.23; in the experiment on AmGSTF1 [2] (10 µM), 0.17; with AmGSTF1 [2] (100 µM) it was 0.07.

For the compound `COc1cc(OC)c2c(=O)cc(-c3cccc(S(C)(=O)=O)c3)oc2c1` [18k], the entries for the “CDNB Assay % Inhibition” value with AmGSTF1 [1] (10 µM compound) and in the experiment with AmGSTF1 [1] (100 µM compound) were 11% and 60%, respectively. For the same compound, the “Thermal Shift Assay ∆Tm” value in the experiment on AmGSTF1 [2] (1 µM) was 0.20; in the experiment with AmGSTF1 [2] (10 µM), 0.10; with AmGSTF1 [2] (100 µM) it was 0.30.

Turning to `COc1cc(OC)c2c(=O)cc(N3CCCCC3)oc2c1` [17c], the results for the “CDNB Assay % Inhibition” value with AmGSTF1 [1] (10 µM compound) and with AmGSTF1 [1] (100 µM compound) were 12% and 67%, respectively. Besides, the figures for the “Thermal Shift Assay ∆Tm” value in the experiment on AmGSTF1 [2] (1 µM), in the experiment on AmGSTF1 [2] (10 µM) and in the experiment on AmGSTF1 [2] (100 µM) were 0.23, 0.13 and 0.30, respectively.

On to `COc1cc(OC)c2c(=O)cc(-c3ccn[nH]3)oc2c1` [compound 24], for which the “CDNB Assay % Inhibition” value in the experiment with AmGSTF1 [1] (10 µM compound) is 6%; in the experiment on AmGSTF1 [1] (100 µM compound) it was 59%. Also, the “Thermal Shift Assay ∆Tm” value in the experiment with AmGSTF1 [2] (1 µM) was -0.30; in the experiment with AmGSTF1 [2] (10 µM) it was -0.07; in the experiment with AmGSTF1 [2] (100 µM), -0.03.

`COc1cc(OC)c2c(=O)cc(-c3ccccc3C)oc2c1` [18j]: the “CDNB Assay % Inhibition” value is 9% in the experiment with AmGSTF1 [1] (10 µM compound) and 36% in the experiment with AmGSTF1 [1] (100 µM compound). Moreover, the “Thermal Shift Assay ∆Tm” value in the experiment on AmGSTF1 [2] (1 µM) is -0.13; in the experiment with AmGSTF1 [2] (10 µM), -0.03; in the experiment with AmGSTF1 [2] (100 µM), -0.03.

On to `CCc1ccc(-c2cc(=O)c3c(OC)cc(OC)cc3o2)cc1` [18e], for which the “CDNB Assay % Inhibition” value with AmGSTF1 [1] (10 µM compound) is reported as 11%; in the experiment with AmGSTF1 [1] (100 µM compound) it was 80%. Also, the “Thermal Shift Assay ∆Tm” value in the experiment on AmGSTF1 [2] (10 µM) turned out to be 0.10; with AmGSTF1 [2] (100 µM) it was 0.
